The supplement of paper PMC4862054

How the values were obtained:
Test in all cases: normalised viability (% of control), CellTiter-Blue; higher = more viable cells (about 100 = DMSO control)
Settings in all cases: incubation time: 72 h
[1] = test system: HDQ-P1
Method: (§1)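 DSRT, CellTiter-Blue viability, 72 h incubation. Signal is normalised to DMSO and benzethonium chloride controls. Value is the normalised response at dose 3.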

[2] = test system: CAL-85-1
Method: as §1

[3] = test system: Hs578T
Method: as §1

[4] = test system: CAL-148
Method: as §1

[5] = test system: MDA-MB-468
Method: as §1

[6] = test system: CAL-120
Method: as §1

[7] = test system: MFM-223
Method: as §1

[8] = test system: CAL-51
Method: as §1

[9] = test system: SK-BR-3
Method: as §1

[10] = test system: DU-4475
Method: as §1

[11] = test system: HCC1599
Method: as §1

[12] = test system: HCC1937
Method: as §1

[13] = test system: BT-474
Method: as §1

[14] = test system: MDA-MB-231
Method: as §1

[15] = test system: HCC1143
Method: as §1

[16] = test system: MDA-MB-436
Method: as §1

[17] = test system: MDA-MB-453
Method: as §1

[18] = test system: BT-549
Method: as §1

[19] = test system: HDQ-P1; remark: listed apart in the source
Summary of the method: (§2)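 Seeded at 20 µl suspension per well onto compound-loaded 384-well plates, breast cancer cell lines were incubated 72 h. CellTiter-Blue fluorescence at 560/590 nm was then read, with each plate normalised to vehicle (100) and a positive kill control (0). Normalised viability is reported at a single listed concentration of the series.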

[20] = test system: CAL-85-1; remark: listed apart in the source
Summary of the method: as §2

[21] = test system: Hs578T; remark: listed apart in the source
Summary of the method: as §2

[22] = test system: CAL-148; remark: listed apart in the source
Summary of the method: as §2

[23] = test system: MDA-MB-468; remark: listed apart in the source
Summary of the method: as §2

[24] = test system: CAL-120; remark: listed apart in the source
Summary of the method: as §2

[25] = test system: MFM-223; remark: listed apart in the source
Summary of the method: as §2

[26] = test system: SK-BR-3; remark: listed apart in the source
Summary of the method: as §2

[27] = test system: HCC1599; remark: listed apart in the source
Summary of the method: as §2

[28] = test system: MDA-MB-231; remark: listed apart in the source
Summary of the method: as §2

[29] = test system: HCC1143; remark: listed apart in the source
Summary of the method: as §2

[30] = test system: MDA-MB-436; remark: listed apart in the source
Summary of the method: as §2

COc1c(C)cnc(Cn2cnc3c(Cl)nc(N)nc32)c1C [BIIB021]
Settings | normalised viability [%]
[1], 10 nM | 114
[2], 10 nM | 87.5
[3], 100 nM | 64.7
[4], 10 nM | 82.3
[5], 100 nM | 68.9
[6], 100 nM | 27.6
[7], 100 nM | 53.9
[8], 10 nM | 100
[9], 100 nM | 23.9
[10], 10 nM | 82.6
[11], 100 nM | 101
[12], 100 nM | 59.6
[13], 100 nM | 59.4
[14], 100 nM | 61.4
[15], 100 nM | 58.8
[16], 100 nM | 89.8
[17], 10 nM | 76.4
[18], 100 nM | 52.6
[19], 3 nM | 110
[19], 30 nM | 110
[19], 100 nM | 77.8
[20], 3 nM | 81
[20], 30 nM | 81.5
[20], 100 nM | 86.1
[21], 10 nM | 95.3
[21], 1000 nM | 61
[21], 10000 nM | 46.9
[22], 3 nM | 87
[22], 30 nM | 88.6
[22], 100 nM | 72.3
[23], 10 nM | 93.5
[23], 1000 nM | 43.2
[23], 10000 nM | 21.3
[24], 10 nM | 84.1
[24], 1000 nM | 18.4
[24], 10000 nM | 15.2
[25], 10 nM | 81.9
[25], 1000 nM | 23
[25], 10000 nM | 23.8
[26], 10 nM | 85.7
[26], 1000 nM | 14.5
[26], 10000 nM | 12.8
[27], 10 nM | 102
[27], 1000 nM | 58.8
[27], 10000 nM | 40.7
[28], 10 nM | 86.1
[28], 1000 nM | 34.1
[28], 10000 nM | 23.8
[29], 10 nM | 80.8
[29], 1000 nM | 32.1
[29], 10000 nM | 30.6
[30], 10 nM | 92.5
[30], 1000 nM | 43.5
[30], 10000 nM | 25.5

COc1ccc(C2=N[C@@H](c3ccc(Cl)cc3)[C@@H](c3ccc(Cl)cc3)N2C(=O)N2CCNC(=O)C2)c(OC(C)C)c1 [Nutlin-3]
Settings | normalised viability [%]
[1], 10 nM | 113
[2], 10 nM | 99.1
[3], 100 nM | 101
[4], 10 nM | 95.6
[5], 100 nM | 95.8
[6], 100 nM | 84.8
[7], 100 nM | 83.2
[8], 10 nM | 94.3
[9], 100 nM | 72.8
[10], 10 nM | 95.4
[11], 100 nM | 118
[12], 100 nM | 106
[13], 100 nM | 109
[14], 100 nM | 88.3
[15], 100 nM | 84
[16], 100 nM | 97.9
[17], 10 nM | 98.7
[18], 100 nM | 105
[19], 3 nM | 107
[19], 30 nM | 112
[19], 100 nM | 107
[20], 3 nM | 84.5
[20], 30 nM | 78.5
[20], 100 nM | 90.4
[21], 10 nM | 105
[21], 1000 nM | 117
[21], 10000 nM | 100
[22], 3 nM | 86
[22], 30 nM | 89.8
[22], 100 nM | 95.6
[23], 10 nM | 104
[23], 1000 nM | 104
[23], 10000 nM | 90.1
[24], 10 nM | 82.8
[24], 1000 nM | 85.2
[24], 10000 nM | 96.6
[25], 10 nM | 87.5
[25], 1000 nM | 83.2
[25], 10000 nM | 81.6
[26], 10 nM | 103
[26], 1000 nM | 98.1
[26], 10000 nM | 101
[27], 10 nM | 96.1
[27], 1000 nM | 104
[27], 10000 nM | 97.4
[28], 10 nM | 102
[28], 1000 nM | 97.7
[28], 10000 nM | 104
[29], 10 nM | 77.6
[29], 1000 nM | 82.8
[29], 10000 nM | 82.9
[30], 10 nM | 108
[30], 1000 nM | 82.3
[30], 10000 nM | 110

Cn1c(=O)c(F)c(Nc2ccc(I)cc2F)c2c(=O)n(C[C@@H](O)CO)cnc21 [TAK-733]
Settings | normalised viability [%]
[1], 1 nM | 118
[2], 1 nM | 107
[3], 10 nM | 86.8
[4], 1 nM | 92.6
[5], 10 nM | 91.5
[6], 10 nM | 92.7
[7], 10 nM | 80.3
[8], 1 nM | 103
[9], 10 nM | 99.4
[10], 1 nM | 98
[11], 10 nM | 86.2
[12], 10 nM | 100
[13], 10 nM | 123
[14], 10 nM | 54.9
[15], 10 nM | 77
[16], 10 nM | 100
[17], 1 nM | 123
[18], 10 nM | 97.4
[19], 0.3 nM | 113
[19], 3 nM | 118
[19], 10 nM | 91.6
[20], 0.3 nM | 93.5
[20], 3 nM | 97.8
[20], 10 nM | 96.1
[21], 1 nM | 108
[21], 100 nM | 88.3
[21], 1000 nM | 77.5
[22], 0.3 nM | 95
[22], 3 nM | 99.5
[22], 10 nM | 99.5
[23], 1 nM | 99.4
[23], 100 nM | 84.6
[23], 1000 nM | 95
[24], 1 nM | 92.4
[24], 100 nM | 74.7
[24], 1000 nM | 56.3
[25], 1 nM | 90.4
[25], 100 nM | 79.8
[25], 1000 nM | 64.5
[26], 1 nM | 106
[26], 100 nM | 102
[26], 1000 nM | 112
[27], 1 nM | 94.8
[27], 100 nM | 74.6
[27], 1000 nM | 70.5
[28], 1 nM | 89.2
[28], 100 nM | 36.1
[28], 1000 nM | 33.8
[29], 1 nM | 94.1
[29], 100 nM | 68.6
[29], 1000 nM | 56.4
[30], 1 nM | 112
[30], 100 nM | 84.1
[30], 1000 nM | 88.9

O=P(O)(NCCCl)NCCCl [Ifosfamide mustard]
Settings | normalised viability [%]
[1], 10 nM | 122
[2], 10 nM | 101
[3], 100 nM | 72.2
[4], 10 nM | 104
[5], 100 nM | 100
[6], 100 nM | 92.3
[7], 100 nM | 95.2
[8], 10 nM | 107
[9], 100 nM | 86.2
[10], 10 nM | 99.5
[11], 100 nM | 117
[12], 100 nM | 100
[13], 100 nM | 112
[14], 100 nM | 95.6
[15], 100 nM | 116
[16], 100 nM | 98.3
[17], 10 nM | 106
[18], 100 nM | 106
[19], 3 nM | 107
[19], 30 nM | 117
[19], 100 nM | 107
[20], 3 nM | 96
[20], 30 nM | 90.9
[20], 100 nM | 99.1
[21], 10 nM | 106
[21], 1000 nM | 102
[21], 10000 nM | 112
[22], 3 nM | 96.8
[22], 30 nM | 103
[22], 100 nM | 102
[23], 10 nM | 98.5
[23], 1000 nM | 93.9
[23], 10000 nM | 86.9
[24], 10 nM | 80.5
[24], 1000 nM | 85.6
[24], 10000 nM | 89.5
[25], 10 nM | 92.4
[25], 1000 nM | 83.3
[25], 10000 nM | 97
[26], 10 nM | 101
[26], 1000 nM | 107
[26], 10000 nM | 111
[27], 10 nM | 96.2
[27], 1000 nM | 106
[27], 10000 nM | 95.6
[28], 10 nM | 108
[28], 1000 nM | 124
[28], 10000 nM | 86.6
[29], 10 nM | 99.6
[29], 1000 nM | 99.8
[29], 10000 nM | 97.5
[30], 10 nM | 110
[30], 1000 nM | 73.3
[30], 10000 nM | 104
